Measured values from patent publication US8785488B2 (Exelixis Patent Company LLC, priority 2009, dated 2014).

Target: T1, human TGR5 (h-TGR5) (Homo sapiens, UniProt Q8TDU6)
T1 construct: expressed in transfected cells
T1 sequence (Q8TDU6 1-330): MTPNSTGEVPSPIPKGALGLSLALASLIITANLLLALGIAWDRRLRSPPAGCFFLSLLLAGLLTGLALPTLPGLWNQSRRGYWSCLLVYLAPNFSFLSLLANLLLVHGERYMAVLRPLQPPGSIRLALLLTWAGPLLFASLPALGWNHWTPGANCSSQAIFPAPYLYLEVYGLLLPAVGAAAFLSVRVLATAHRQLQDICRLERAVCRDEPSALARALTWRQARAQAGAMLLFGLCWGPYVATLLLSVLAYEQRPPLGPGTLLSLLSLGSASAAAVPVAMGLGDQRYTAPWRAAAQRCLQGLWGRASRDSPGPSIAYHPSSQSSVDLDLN
Assay: TGR5/CRE-Luciferiase Assay (HEK 293 hTGR5/CRE-Luc cells)
Assay type: cell-based
Conditions: h-TGR5 CRE-Luc EC50, Table 1; read-out: CRE-Luc (EC50)
Method: Compounds were serially diluted in DMEM containing 5% DMSO and 5 μL of compound or media alone was transferred to each well and plates were incubated for 6 hours. Following incubation, 30 μL of lysis/luciferase buffer was added to each well. The luciferase activity was then measured on the EnVision™ plate reader and the dose response data was analyzed using ActivityBase.
In the following tables, EC50 values determined according to the TGR5 cAMP Assay described herein (cAMP); EC50 values determined according to the TGR5/CRE-Luciferiase Assay described herein (CRE-Luc). […] The following compounds in Tables 1 and 2 were made by using procedures described in the above Schemes and Examples, and, where applicable, by making any necessary substitutions of known materials that one skilled in the art would ordinarily understand how to do.

Compared with `COc1c(Cl)cc(C(C)(C)c2cnc(SCc3ccc(F)cc3Cl)n2-c2ccc(F)cc2)cc1Cl`, `CC(C)(C)OC(=O)N1CCC(NCc2ncc(C(C)(C)c3ccc(Cl)c(Cl)c3)n2-c2ccc(F)cc2)CC1` is higher in EC50: less than 100 nM for the first, 1000 to 10000 nM for the second. The first is the more potent here.

“2-chloro-5-{1-[2-{(2-chloro-4- fluorophenyl)methyl]thio}-1-(4-fluorophenyl)- 1H-imidazol-5-yl]-1- methylethyl}benzenesulfonamide” and `CC(C)(C)OC(=O)N1CCC(CSc2ncc(C(C)(C)c3ccc(Cl)c(Cl)c3)n2-c2ccc(F)cc2)C1` (centres unmarked) [1,1-dimethylethyl 3-[({5-[1-(3,4-dichlorophenyl)-1-methylethyl]-1-(4-fluorophenyl)-1H-imidazol-2-yl}thio)methyl]pyrrolidine-1-carboxylate] fall in the same range of EC50: 100 to 1000 nM for the first, 100 to 1000 nM for the second.

Compared with `CC(C)(C)OC(=O)N1CCC(OCc2ncc(C(C)(C)c3ccc(Cl)c(Cl)c3)n2-c2ccc(F)cc2)CC1` [1,1-dimethylethyl 4-[({5-[1-(3,4-dichlorophenyl)-1-methylethyl]-1-(4-fluorophenyl)-1H-imidazol-2-yl}methyl)oxy]piperidine-1-carboxylate], `CC(C)(C)OC(=O)N1CCC(CSc2ncc(C(C)(C)c3ccc(F)c(F)c3)n2-c2ccc(F)cc2)CC1` [1,1-dimethylethyl 4-[({5-[1-(3,4-difluorophenyl)-1-methylethyl]-1-(4-fluorophenyl)-1H-imidazol-2-yl}thio)methyl]piperidine-1-carboxylate] is lower in EC50: 1000 to 10000 nM for the first, 100 to 1000 nM for the second.

First: CC(C)(c1ccc(Cl)c(Cl)c1)c1cnc(S(=O)(=O)Cc2c(F)cccc2Cl)n1-c1ccc(F)cc1Cl [1-(2-chloro-4-fluorophenyl)-2-{[(2-chloro-6-fluorophenyl)methyl]sulfonyl}-5-[1-(3,4-dichlorophenyl)-1-methylethyl]-1H-imidazole]
Second: CC(C)(c1ccc(Cl)c(Cl)c1)c1cnc(SCc2c(F)cccc2Cl)n1-c1ccc(F)cc1Cl [1-(2-chloro-4-fluorophenyl)-2-{[(2-chloro-6-fluorophenyl)methyl]thio}-5-[1-(3,4-dichlorophenyl)-1-methylethyl]-1H-imidazole]
The EC50 of the first is higher: 1000 to 10000 nM for the first, 100 to 1000 nM for the second.

Compared with `CC(C)(c1ccc(Cl)c(Cl)c1)c1cnc(SCc2c(F)cccc2Cl)n1-c1ccc(F)c(Cl)c1` [1-(3-chloro-4-fluorophenyl)-2-{[(2-chloro-6-fluorophenyl)methyl]thio}-5-[1-(3,4-dichlorophenyl)-1-methylethyl]-1H-imidazole], `CC(C)(c1ccc(Cl)c(Cl)c1)c1cnc(SCc2c(F)cccc2Cl)n1-c1ccc(Cl)cc1F` [1-(4-chloro-2-fluorophenyl)-2-{[(2-chloro-6-fluorophenyl)methyl]thio}-5-[1-(3,4-dichlorophenyl)-1-methylethyl]-1H-imidazole] is higher in EC50: less than 100 nM for the first, 100 to 1000 nM for the second.

`CC(C)(c1ccc(Cl)c(Cl)c1)c1cnc(SCc2c(F)cccc2Cl)n1-c1ccc(Cl)c(F)c1` [1-(4-chloro-3-fluorophenyl)-2-{[(2-chloro-6-fluorophenyl)methyl]thio}-5-[1-(3,4-dichlorophenyl)-1-methylethyl]-1H-imidazole] and `CC(C)(O)COc1cc(F)ccc1CSc1ncc(C(C)(C)c2ccc(Cl)c(Cl)c2)n1-c1ccc(F)cc1` [1-({2-[({5-[1-(3,4-dichlorophenyl)-1-methylethyl]-1-(4-fluorophenyl)-1H-imidazol-2-yl}thio)methyl]-5-fluorophenyl}oxy)-2-methylpropan-2-ol] fall in the same range of EC50: 100 to 1000 nM for the first, 100 to 1000 nM for the second.

First: CC1CCc2cc(F)ccc2N1S(=O)(=O)c1ncc(C(C)(C)c2ccc(Cl)c(Cl)c2)n1-c1ccc(F)cc1 (centres unmarked) [1-({5-[1-(3,4-dichlorophenyl)-1-methylethyl]-1-(4-fluorophenyl)-1H-imidazol-2-yl}sulfonyl)-6-fluoro-2-methyl-1,2,3,4-tetrahydroquinoline]
Second: CC(C)(O)COc1cc(CSc2ncc(C(C)(C)c3ccc(Cl)c(Cl)c3)n2-c2ccc(F)cc2)ccc1F [1-({5-[({5-[1-(3,4-dichlorophenyl)-1-methylethyl]-1-(4-fluorophenyl)-1H-imidazol-2-yl}thio)methyl]-2-fluorophenyl}oxy)-2-methylpropan-2-ol]
The EC50 of the first is higher: 1000 to 10000 nM for the first, 100 to 1000 nM for the second. The second is the more potent here.

`COc1ccc(C(C)(C)c2cnc(CNCc3c(F)cccc3Cl)n2-c2ccc(F)cc2)cc1OC` [1-[5-{1-[3,4-bis(methyloxy)phenyl]-1-methylethyl}-1-(4-fluorophenyl)-1H-imidazol-2-yl]-N-[(2-chloro-6-fluorophenyl)methyl]methanamine] and `COc1ccc(C(C)(C)c2cnc(CNCc3ccc(Cl)c(F)c3)n2-c2ccc(F)cc2)cc1OC` [1-[5-{1-[3,4-bis(methyloxy)phenyl]-1-methylethyl}-1-(4-fluorophenyl)-1H-imidazol-2-yl]-N-[(4-chloro-3-fluorophenyl)methyl]methanamine] cannot be ordered by EC50: less than 100 nM for the first, less than 100 nM for the second.

`CC(C)(O)COc1ccc(C(C)(C)c2cnc(SCc3ccc(F)cc3Cl)n2-c2ccc(F)cc2)cc1Cl` [1-[(2-chloro-4-{1-[2-{[(2-chloro-4-fluorophenyl)methyl]thio}-1-(4-fluorophenyl)-1H-imidazol-5-yl]-1-methylethyl}phenyl)oxy]-2-methylpropan-2-ol] and `CC(C)(O)COc1cc(C(C)(C)c2cnc(SCc3c(F)cccc3Cl)n2-c2ccc(F)cc2)ccc1Cl` [1-[(2-chloro-5-{1-[2-{[(2-chloro-6-fluorophenyl)methyl]thio}-1-(4-fluorophenyl)-1H-imidazol-5-yl]-1-methylethyl}phenyl)oxy]-2-methylpropan-2-ol] fall in the same range of EC50: 100 to 1000 nM for the first, 100 to 1000 nM for the second.

`CN1CCN(c2ccc(CSc3ncc(C(C)(C)c4ccc(Cl)c(Cl)c4)n3-c3ccc(F)cc3)cc2Cl)CC1` [1-{2-chloro-4-[({5-[1-(3,4-dichlorophenyl)-1-methylethyl]-1-(4-fluorophenyl)-1H-imidazol-2-yl}thio)methyl]phenyl}-4-methylpiperazine] and `CC(=O)c1ccc(OCc2ncc(C(C)(C)c3ccc(Cl)c(Cl)c3)n2-c2ccc(F)cc2)c(Cl)c1` [1-{3-chloro-4-[({5-[1-(3,4-dichlorophenyl)-1-methylethyl]-1-(4-fluorophenyl)-1H-imidazol-2-yl}methyl)oxy]phenyl}ethanone] fall in the same range of EC50: 1000 to 10000 nM for the first, 1000 to 10000 nM for the second.

First: CN1CCN(c2ccc(CSc3ncc(C(C)(C)c4ccc(Cl)c(Cl)c4)n3-c3ccc(F)cc3)cc2F)CC1 [1-{4-[({5-[1-(3,4-dichlorophenyl)-1-methylethyl]-1-(4-fluorophenyl)-1H-imidazol-2-yl}thio)methyl]-2-fluorophenyl}-4-methylpiperazine]
Second: CN1CCN(c2cc(CSc3ncc(C(C)(C)c4ccc(Cl)c(Cl)c4)n3-c3ccc(F)cc3)ccc2F)CC1 [1-{5-[({5-[1-(3,4-dichlorophenyl)-1-methylethyl]-1-(4-fluorophenyl)-1H-imidazol-2-yl}thio)methyl]-2-fluorophenyl}-4-methylpiperazine]
The EC50 of the first is lower: 100 to 1000 nM for the first, 1000 to 10000 nM for the second.

`CC(C)(c1ccc(Cl)c(Cl)c1)c1cnc(SCc2ccc(F)c(NC(=N)N)c2)n1-c1ccc(F)cc1` [1-{5-[({5-[1-(3,4-dichlorophenyl)-1-methylethyl]-1-(4-fluorophenyl)-1H-imidazol-2-yl}thio)methyl]-2-fluorophenyl}guanidine] and `CC(C)(O)c1ccc(C(C)(C)c2cnc(SCc3ccc(F)cc3Cl)n2-c2ccc(F)cc2)cc1Cl` [2-(2-chloro-4-{1-[2-{[(2-chloro-4-fluorophenyl)methyl]thio}-1-(4-fluorophenyl)-1H-imidazol-5-yl]-1-methylethyl}phenyl)propan-2-ol] fall in the same range of EC50: 100 to 1000 nM for the first, 100 to 1000 nM for the second.

First: CN(C)CCn1c(C(C)(C)c2ccc(Cl)c(Cl)c2)cnc1SCc1c(F)cccc1Cl [2-(2-{[(2-chloro-6-fluorophenyl)methyl]thio}-5-[1-(3,4-dichlorophenyl)-1-methylethyl]-1H-imidazol-1-yl)-N,N-dimethylethanamine]
Second: CC(C)(c1ccc(Cl)c(Cl)c1)c1cnc(SCc2c(F)cccc2Cl)n1CCO [2-(2-{[(2-chloro-6-fluorophenyl)methyl]thio}-5-[1-(3,4-dichlorophenyl)-1-methylethyl]-1H-imidazol-1-yl)ethanol]
The EC50 of the first is higher: 1000 to 10000 nM for the first, 100 to 1000 nM for the second.

Compared with `CC(C)(Oc1cc(F)ccc1CSc1ncc(C(C)(C)c2ccc(Cl)c(Cl)c2)n1-c1ccc(F)cc1)C(=O)O` [2-({2-[({5-[1-(3,4-dichlorophenyl)-1-methylethyl]-1-(4-fluorophenyl)-1H-imidazol-2-yl}thio)methyl]-5-fluorophenyl}oxy)-2-methylpropanoic acid], `CCN(CC)CCOc1ccc(CSc2ncc(C(C)(C)c3ccc(Cl)c(Cl)c3)n2-c2ccc(F)cc2)cc1-c1nnn[nH]1` [2-({4-[({5-[1-(3,4-dichlorophenyl)-1-methylethyl]-1-(4-fluorophenyl)-1H-imidazol-2-yl}thio)methyl]-2-(1H-tetrazol-5-yl)phenyl}oxy)-N,N-diethylethanamine] is lower in EC50: 1000 to 10000 nM for the first, 100 to 1000 nM for the second. The second is the more potent here.

Compound `CC(C)(Oc1cc(CSc2ncc(C(C)(C)c3ccc(Cl)c(Cl)c3)n2-c2ccc(F)cc2)ccc1F)C(=O)O` [2-({5-[({5-[1-(3,4-dichlorophenyl)-1-methylethyl]-1-(4-fluorophenyl)-1H-imidazol-2-yl}thio)methyl]-2-fluorophenyl}oxy)-2-methylpropanoic acid] has an EC50 of 100 to 1000 nM.
